From US6544521B2, “Immunoreactive peptide CTL epitopes of human cytomegalovirus pp150” (City of Hope, priority 2000, dated 2003) come the findings set out here.

This experiment concerns pp150-specific T cell clones. Nature of the experiment: Chromium release assay with peptide-sensitized EBVLCL and pp150-specific CTL clones (epitope mapping). The conditions noted are these: persons having the indicated HLA allele; target cells sensitized with peptide at 50 μM. In kind it is cell-based, human.

As for “QTVTSTPVQGR (listed as Human cytomegalovirus) [SEQ ID NO: 2]”, the “Number of Individuals Tested” value is 2/2. As for “TTVYPPSSTAK (listed as Human cytomegalovirus) [SEQ ID NO: 1]”, the figure is 2/2.
